Test [1] relates to LoVo/DX cells. Nature of the test: Antiproliferative assay in vitro (SRB), 72 h. The class given is cell-based, human. Conditions: for Resistance index (RI): doxorubicin-resistant LoVo/DX cell line versus LoVo; for IC50: doxorubicin-resistant colon cancer cells, SRB, 72 h exposure, mean ± SD. As for the experimental part:
(§1) Biophenotypic B myelomonocytic leukaemia MV4-11, human lung carcinoma A549, human breast carcinoma MCF-7, human colon carcinoma LoVo, its drug resistant line LoVo/DX, liver carcinoma HepG2, and normal mouse fibroblast BALB/3T3 cells were obtained from the American Type Culture Collection (Rockville, Maryland, USA). All lines are being maintained at the Institute of Immunology and Experimental Therapy, Wrocław, Poland. All cell lines were grown in a humid atmosphere at 37 °C with 5% CO2 and were cultured in media according to the method described before.[18]
(§2) Prior to usage, the compounds were dissolved in DMSO to the concentration of 25 or 50 mM, and subsequently diluted in the culture medium to reach the required concentrations (ranging from 5 to 625 μM).
(§3) Twenty-four hours before addition of the tested compounds, the cells were plated in 96-well plates (Sarstedt, USA) at a density of 10^4 cells per well. All cell lines were exposed to each tested phosphatidylcholines for 72 h. Cells were also exposed to the commercially available drugs cisplatin and doxorubicin. Cell lines were also exposed to the solvent used for the tested compounds (DMSO) at concentrations corresponding to those present in the tested agents' dilutions. For adherent cells, a SRB assay was performed and an MTT assay was performed for leukaemia cells.
(§4) The cytotoxicity assay was performed after 72 h exposure of the cultured cells to varying concentrations (from 5 to 625 μM) of the tested agents. The cells attached to the plastic were fixed in situ by gently adding 50 μL per well of cold 50% TCA (trichloroacetic acid). The plates were incubated at 4 °C for 1 h and then washed five times with tap water. The background optical density was measured in the wells filled with culture medium, without the cells. The cellular material fixed with TCA was stained with 50 μL of 0.4% sulforhodamine B (SRB) dissolved in 1% acetic acid for 30 min. Unbound dye was removed by rinsing (4×) with 1% acetic acid. The protein-bound dye was extracted with 10 mM unbuffered Tris base for determination of the optical density (at 540 nm) in a computer-interfaced 96-well microtiter plate reader Multiskan RC photometer (Labsystems, Helsinki, Finland). Each compound in the given concentration was tested in triplicate in each experiment, which was repeated 3–5 times.
(§5) The results of the cytotoxic activity in vitro were expressed as IC50—the concentration of compound (in μM) that inhibits the proliferation rate of the tumor cells by 50% as compared to control untreated cells.

In test [2] the test system is MV4-11 cells. Nature of the test: Antiproliferative assay in vitro (MTT), 72 h. The class given is cell-based, human. Conditions: leukaemia cells; for IC50: MTT, 72 h exposure, mean ± SD; for Fold lower IC50 than free cinnamic / 3-methoxycinnamic acid: versus corresponding free acid. As for the experimental part: as §1, §2, §3
This technique was applied for the cytotoxicity screening against leukemia cells. An assay was performed after 72 h exposure to varying concentrations (from 5 to 625 μM) of the tested agents. For the last 3–4 hours of incubation. 20 μL of MTT solution was added to each well (MTT: 3-(4,5-dimethylthiazol-2-yl)-2,5-diphenyl tetrazolium bromide; stock solution: 5 mg mL^−1, Sigma, Germany). The mitochondria of viable cells reduce the pale yellow MTT to a navy blue formazan: the more viable cells are present in a well, the more MTT will be reduced to formazan. When the incubation time was completed, 80 μL of the lysing mixture was added to each well (lysing mixture: 225 mL dimethylformamide, 67.5 g sodium dodecyl sulphate, and 275 mL of distilled water). After 24 h, when formazan crystals had been dissolved, the optical densities of the samples were read with a Multiskan RC photometer at 570 nm wavelength. Each compound in a given concentration was tested in triplicate in each experiment, which was repeated 3–5 times.
as §5

The test system of test [3] is A549 cells. Nature of the test: Antiproliferative assay in vitro (SRB), 72 h. The class given is cell-based, human. Conditions: 72 h exposure, mean ± SD, read-out: IC50 A-549. The procedure: as §1, §2, §3, §4, §5
The subject of test [4] is HepG2 cells. Nature of the test: Antiproliferative assay in vitro (SRB), 72 h. The class given is cell-based, human. The following applies: 72 h exposure, mean ± SD. The procedure:
as §1, §2, §3, §4, §5

Test [5] has as its system LoVo cells. Nature of the test: Antiproliferative assay in vitro (SRB), 72 h. The class given is cell-based, human. The following applies: colon cancer cells, 72 h exposure, mean ± SD. The procedure: as §1, §2, §3, §4, §5
The test system of test [6] is MCF-7 cells. Nature of the test: Antiproliferative assay in vitro (SRB), 72 h. The class given is cell-based, human. Conditions: 72 h exposure, mean ± SD. The procedure:
as §1, §2, §3, §4, §5

Test [7] has as its system BALB/3T3 cells. Nature of the test: Antiproliferative assay in vitro (SRB), 72 h. It is filed as cell-based, mouse. The following applies: 72 h exposure, mean ± SD. As for the experimental part: as §1, §2, §3, §4, §5
The mark [8] stands for this setting: Homo sapiens, A549, lung cancer cells.
The mark [9] stands for this setting: Homo sapiens, HepG2, liver cancer cells.
The mark [10] stands for this setting: Homo sapiens, MCF7, breast cancer cells.
The mark [11] stands for this setting: Mus musculus, BALB/3T3, normal mice fibroblast cells.

Read-outs that look alike come from different tables or passages of the source.

Turning to `COc1cccc2c1C(=O)c1c(O)c3c(c(O)c1C2=O)C[C@@](O)(C(=O)CO)C[C@@H]3O[C@H]1C[C@H](N)[C@H](O)[C@H](C)O1` [Doxorubicin, doxorubicin, reference compound], the “Resistance index (RI)” value in test [1] came out at 55.81.

Consider `C[N+](C)(C)CCOP(=O)([O-])OC[C@@H](COC(=O)C=Cc1ccccc1)OC(=O)C=Cc1ccccc1` [Compound 3a, 1,2-Dicinnamoyl-sn-glycero-3-phosphocholine], for which the IC50 is 215 ± 51.9 µM in test [2] (Homo sapiens, MV4-11); greater than 625 µM in test [3] (setting [8]); greater than 625 µM in test [4] (setting [9]); 200 ± 49.7 µM in test [5] (Homo sapiens, LoVo); 329 ± 12.5 µM in test [1] (Homo sapiens, LoVo/DX); 321 ± 11.1 µM in test [6] (setting [10]). In addition, the IC50 in test [7] (setting [11]) is greater than 625 µM. Besides, the “Resistance index (RI)” value in test [1] came to 1.65.

Regarding `COc1cccc(C=CC(=O)OC[C@H](COP(=O)([O-])OCC[N+](C)(C)C)OC(=O)C=Cc2cccc(OC)c2)c1` [Compound 3b, 1,2-Di(3-methoxycinnamoyl)-sn-glycero-3-phosphocholine], the IC50 in test [2] (Homo sapiens, MV4-11) came out at 165 ± 25.4 µM; in test [3] (setting [8]) it was 286 ± 5.3 µM; in test [4] (setting [9]) it was 83.6 ± 45.1 µM; in test [5] (Homo sapiens, LoVo) it was 210 ± 22.2 µM; in test [1] (Homo sapiens, LoVo/DX) it was 32.1 ± 16.9 µM; in test [6] (setting [10]) it was 307 ± 12.5 µM. In test [7] (setting [11]), this molecule came in with an IC50 of 297 ± 56.4 µM. In addition, the “Resistance index (RI)” value in test [1] was found to be 0.15.

For the molecule `CCCCCCCCCCCCCCCC(=O)OC[C@H](COP(=O)([O-])OCC[N+](C)(C)C)OC(=O)C=Cc1cccc(OC)c1` [Compound 5b, 1-Palmitoyl-2-3-methoxycinnamoyl-sn-glycero-3-phosphocholine], the IC50 in test [2] (Homo sapiens, MV4-11) came out at 83.2 ± 4 µM; in test [3] (setting [8]), 193 ± 27.4 µM; in test [4] (setting [9]), 295 ± 11.4 µM; in test [5] (Homo sapiens, LoVo), 70.4 ± 5.4 µM; in test [1] (Homo sapiens, LoVo/DX) it was 69.9 ± 6.3 µM; in test [6] (setting [10]), 224 ± 9.5 µM. Moreover, the IC50 in test [7] (setting [11]) was 257 ± 52.4 µM. Besides, in test [1], the “Resistance index (RI)” value turned out to be 0.99.

For “1-(3-Methoxycinnamoyl)-2-hydroxy-sn-glycero-3-phosphocholine [Compound 9b]”, the IC50 in test [2] was found to be 30.5 ± 8.2 µM; in test [3] (lung cancer cells), 259 ± 16.7 µM; in test [4] (liver cancer cells), 272 ± 33.1 µM; in test [5], 85.1 ± 11.9 µM; in test [1], 160 ± 61.7 µM; in test [6] (breast cancer cells) it was 84.1 ± 7.4 µM. In test [7] (normal mice fibroblast cells), this molecule had an IC50 of 154 ± 66.4 µM. Moreover, the “Fold lower IC50 than free cinnamic / 3-methoxycinnamic acid” value in test [2] was found to be 11 fold. The “Resistance index (RI)” value in test [1] is recorded as 1.88.

On to “1-Cinnamoyl-2-hydroxy-sn-glycero-3-phosphocholine [Compound 9a]”, for which the IC50 turned out to be 44.3 ± 5.1 µM in test [2]; 287.1 ± 2 µM in test [3] (lung cancer cells); 290 ± 19.4 µM in test [4] (liver cancer cells); 112 ± 26.3 µM in test [5]; 238.2 ± 2.3 µM in test [1]; 104 ± 4.4 µM in test [6] (breast cancer cells). The molecule also came in with an IC50 in test [7] (normal mice fibroblast cells) of 160 ± 45.7 µM. For the same molecule, the “Fold lower IC50 than free cinnamic / 3-methoxycinnamic acid” value in test [2] came to 8 fold. Moreover, in test [1], the “Resistance index (RI)” value is 2.13. Further, in test [1] (doxorubicin-resistant LoVo/DX cell line, judged from RI), the “Ability to overcome drug resistance” value is “moderate ability to overcome drug resistance”.

Regarding `CCCCCCCCCCCCCCCC(=O)O[C@H](COC(=O)C=Cc1ccccc1)COP(=O)([O-])OCC[N+](C)(C)C` [Compound 10a, 1-Cinnamoyl-2-palmitoyl-sn-glycero-3-phosphocholine], the IC50 in test [2] (Homo sapiens, MV4-11) was 88.7 ± 28.9 µM; in test [3] (setting [8]) it was 61.9 ± 3.7 µM; in test [4] (setting [9]), 283 ± 5.2 µM; in test [5] (Homo sapiens, LoVo), 63 ± 14.4 µM; in test [1] (Homo sapiens, LoVo/DX), 66 ± 8.7 µM; in test [6] (setting [10]), 127 ± 28.3 µM. Further, the IC50 in test [7] (setting [11]) amounted to 208 ± 30.7 µM. Also, the “Resistance index (RI)” value in test [1] amounted to 1.05.

For the molecule `N.N.[Cl][Pt][Cl]` [Cisplatin, cisplatin, reference compound], the IC50 in test [2] is 1.3 ± 0.47 µM; in test [3] (lung cancer cells), 8.6 ± 0.7 µM; in test [4] (liver cancer cells), 2.38 ± 0.64 µM; in test [5] it was 2.56 ± 0.4 µM; in test [1], 3.17 ± 0.2 µM; in test [6] (breast cancer cells), 8.1 ± 0.03 µM. For the same molecule, in test [7] (normal mice fibroblast cells), the IC50 worked out at 4.2 ± 1.1 µM.

Regarding `COc1cccc(C=CC(=O)O)c1` [Compound 1b, 3-methoxycinnamic acid], the IC50 is 339 ± 111 µM in test [2] (Homo sapiens, MV4-11); greater than 625 µM in test [3] (setting [8]); greater than 625 µM in test [4] (setting [9]); 233 ± 15.5 µM in test [5] (Homo sapiens, LoVo); greater than 625 µM in test [1] (Homo sapiens, LoVo/DX); 420 ± 56.2 µM in test [6] (setting [10]). Moreover, in test [7] (setting [11]), the IC50 amounted to 506 ± 67.7 µM.

As for `O=C(O)/C=C/c1ccccc1` [Compound 1a, Cinnamic acid], the IC50 was 359 ± 105 µM in test [2] (Homo sapiens, MV4-11); greater than 625 µM in test [3] (setting [8]); greater than 625 µM in test [4] (setting [9]); 284 ± 26.6 µM in test [5] (Homo sapiens, LoVo); greater than 625 µM in test [1] (Homo sapiens, LoVo/DX); 480 ± 46.2 µM in test [6] (setting [10]). The IC50 in test [7] (setting [11]) is greater than 625 µM.

As to `CCCCCCCCCCCCCCCC(=O)O[C@H](COC(=O)C=Cc1cccc(OC)c1)COP(=O)([O-])OCC[N+](C)(C)C` [Compound 10b, 1-3-Methoxycinnamoyl-2-palmitoyl-sn-glycero-3-phosphocholine], the half-inhibitory concentration (IC50) in test [2] (Homo sapiens, MV4-11) is 236 ± 46.3 µM; in test [3] (setting [8]) it was 280 ± 8.8 µM; in test [4] (setting [9]), 296 ± 13.2 µM; in test [5] (Homo sapiens, LoVo), 211.6 ± 1.3 µM; in test [1] (Homo sapiens, LoVo/DX), 254 ± 11.6 µM; in test [6] (setting [10]), 214 ± 89.6 µM. The same molecule came in with a half-maximal inhibitory concentration (IC50) in test [7] (setting [11]) of 291 ± 5.6 µM. In addition, the “Resistance index (RI)” value in test [1] amounted to 1.2.

The record behind these values is paper PMC9088016, “Synthesis and biological evaluation of phosphatidylcholines with cinnamic and 3-methoxycinnamic acids with potent antiproliferative activity” (RSC Advances, 2018).
